Test results published in US12071434B2, “Heterocyclic compound” (Takeda Pharmaceutical Company Limited, priority 2018, dated 2024).

What follows are molecules tested against T1, human orexin type 2 receptor (Homo sapiens, UniProt O43614) (assay: Measurement of orexin type 2 receptor agonist activity (calcium fluorescence, Fluo-4 AM, FDSS) in CHO cells forcibly expressing human OX2 receptor). Conditions: test compound 3 μM, DMSO = 0%, orexin A (human) 10 nM = 100%.
T1 construct: expressed in transfected cells
T1 sequence (O43614 1-444): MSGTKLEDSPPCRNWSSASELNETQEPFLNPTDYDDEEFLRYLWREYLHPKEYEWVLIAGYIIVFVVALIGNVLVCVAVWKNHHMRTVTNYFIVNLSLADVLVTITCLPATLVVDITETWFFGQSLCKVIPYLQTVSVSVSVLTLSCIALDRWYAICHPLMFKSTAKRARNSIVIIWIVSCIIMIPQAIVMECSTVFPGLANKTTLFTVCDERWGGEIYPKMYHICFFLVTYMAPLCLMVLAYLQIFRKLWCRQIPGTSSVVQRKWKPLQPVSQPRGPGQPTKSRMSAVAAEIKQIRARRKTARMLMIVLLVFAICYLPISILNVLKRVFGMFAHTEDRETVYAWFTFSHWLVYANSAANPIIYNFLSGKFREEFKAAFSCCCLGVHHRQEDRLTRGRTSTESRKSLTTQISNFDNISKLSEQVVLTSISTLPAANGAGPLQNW
Format: cell-based
Excerpt: To obtain a cell clone stably expressing human orexin type 2 receptor, human orexin type 2 receptor cDNA was inserted into pcDNA3.1(+) plasmid vector (Invitrogen), and a plasmid DNA for expression of human orexin type 2 receptor (pcDNA3.1(+)/hOX2R) was cloned. The plasmid DNA was introduced into CHO-dhfr cell by an electroporation method, and human orexin type 2 receptor expressing clone cells were obtained by limiting dilution method by using G418 drug resistance as a selection marker.
CHO cells forcibly expressing human OX2 receptor were seeded in each well of 384 well black transparent bottom plate (BD Falcon) at 7,500 cells/well, and cultured for one day in a 5% CO2 incubator at 37° C. After removal of the medium in the cell plate, assay buffer A containing a calcium indicator (HBSS (Thermo Fisher Scientific), 20 mM HEPES (Thermo Fisher Scientific), 0.1% BSA (Sigma-Aldrich), 2.5 μg/mL Fluo-4 AM (DOJINDO Chemical), 0.08% Pluronic F127 (DOJINDO Chemical), 1.25 mM probenecid (DOJINDO Chemical)) was added at 30 μL/well. The plate was stood for 30 min in a 5% CO2 incubator at 37° C., and further stood at room temperature for 30 min. A test compound prepared by diluting with assay buffer B (HBSS, 20 mM HEPES, 0.1% BSA) was added at 10 μL/well, and the fluorescence value was measured by FDSSpCELL (Hamamatsu Photonics K.K.) every one sec for 1 min, and thereafter every two sec for 1 min 40 sec. The activity (%) of the test compound was calculated assuming that variation in the fluorescence value when DMSO was added instead of the test compound was 0%, and variation in the fluorescence value when orexin A (human) (PEPTIDE INSTITUTE, INC.) was added at the final concentration of 10 nM was 100%.

SMILES | 0X2R agonist activity (3 μM, %)
CCn1ccc2c(c1=O)[C@@H](Cc1cccc(-c3cccc(F)c3)c1)[C@@H](NS(C)(=O)=O)CC2 (racemic) [Example 79, rac-N-{(7S,8R)-2-ethyl-8-[(3′-fluoro[1,1′-biphenyl]-3-yl)methyl]-1-oxo-1,2,5,6,7,8-hexahydroisoquinolin-7-yl}methanesulfonamide] | 102%
Cc1cc2n(c(=O)c1C)[C@@H](Cc1cccc(-c3ccccc3)c1)[C@@H](NS(C)(=O)=O)CC2 (racemic) [Example 19, rac-N-{(3S,4S)-4-[([1,1′-biphenyl]-3-yl)methyl]-7,8-dimethyl-6-oxo-1,3,4,6-tetrahydro-2H-quinolizin-3-yl}methanesulfonamide] | 122%
CCc1ccc2n(c1=O)C(Cc1cccc(-c3cccc(F)c3)c1F)C(NC(=O)C(=O)N(C)C)CC2 (racemic) [Example 39, rac-N~2~-{(3S,4S)-4-[2,3′-difluoro[1,1′-biphenyl]-3-yl)methyl]-7-ethyl-6-oxo-1,3,4,6-tetrahydro-2H-quinolizin-3-yl}-N~1~,N~1~-dimethylethanediamide] | 89%
CS(=O)(=O)N[C@H]1CCc2ccc(C#N)c(=O)n2[C@H]1Cc1cccc(-c2ccccc2)c1 (racemic) [Example 28, rac-N-{(3S,4S)-4-[([1,1′-biphenyl]-3-yl)methyl]-7-cyano-6-oxo-1,3,4,6-tetrahydro-2H-quinolizin-3-yl}methanesulfonamide] | 97%
COC1(C(=O)N[C@H]2CCc3ccc(C)c(=O)n3[C@H]2Cc2cccc(-c3cccc(F)c3)c2F)CC1 (relative stereo) [Example 56, rel-N-{(3S,4S)-4-[(2,3′-difluoro[1,1′-biphenyl]-3-yl)methyl]-7-methyl-6-oxo-1,3,4,6-tetrahydro-2H-quinolizin-3-yl}-1-methoxycyclopropane-1-carboxamide] | 93%
CS(=O)(=O)NC1CCc2ccc(C(F)(F)F)c(=O)n2C1Cc1cccc(-c2ccccc2)c1 (racemic) [Example 12, rac-N-[(3S,4S)-4-[([1,1′-biphenyl]-3-yl]methyl-6-oxo-7-(trifluoromethyl)-1,3,4,6-tetrahydro-2H-quinolizin-3-yl]methanesulfonamide] | 112%
CCn1c(C)nc2c(c1=O)C(Cc1cccc(-c3ccccc3)c1)C(NS(C)(=O)=O)CC2 (racemic) [Example 71, rac-N-{(5R,6S)-5-[([1,1′-biphenyl]-3-methyl]-3-ethyl-2-methyl-4-oxo-3,4,5,6,7,8-hexahydroquinazolin-6-yl}methanesulfonamide] | 90%
CS(=O)(=O)N[C@H]1CCc2ncn(CC3CC3)c(=O)c2[C@H]1Cc1cccc(-c2ccccc2)c1 (racemic) [Example 103, rac-N-[(5R,6S)-5-[([1,1′-biphenyl]-3-yl)methyl]-3-(cyclopropylmethyl)-4-oxo-3,4,5,6,7,8-hexahydroquinazolin-6-yl]methanesulfonamide] | 79%
Cc1cccc(-c2cccc(C[C@@H]3c4c(ncn(C(C)C)c4=O)CC[C@@H]3NS(C)(=O)=O)c2)c1 (racemic) [Example 106, rac-N-[(5R,6S)-5-[(3′-methyl[1,1′-biphenyl]-3-yl)methyl]-4-oxo-3-(propan-2-yl)-3,4,5,6,7,8-hexahydroquinazolin-6-yl]methanesulfonamide] | 103%

Second part, the molecule after the results:

0X2R agonist activity (3 μM, %) | SMILES
100% | CC(C)n1cnc2c(c1=O)[C@@H](Cc1csc(-c3cccc(F)c3F)n1)[C@@H](NS(C)(=O)=O)CC2 (relative stereo) [Example 154, rel-N-[(5R,6S)-5-{[2-(2,3-difluorophenyl)-1,3-thiazol-4-yl]methyl}-4-oxo-3-(propan-2-yl)-3,4,5,6,7,8-hexahydroquinazolin-6-yl]methanesulfonamide]
98% | CC(C)n1cnc2c(c1=O)[C@@H](Cc1cccc(-c3cccc(F)c3F)c1F)[C@@H](NS(=O)(=O)C1(F)CC1)CC2 [Example 184, 1-fluoro-N-{(5R,6S)-4-oxo-3-(propan-2-yl)-5-[(2,2′,3′-trifluoro[1,1′-biphenyl]-3-yl)methyl]-3,4,5,6,7,8-hexahydroquinazolin-6-yl}cyclopropane-1-sulfonamide]
91% | CC(C)n1cnc2c(c1=O)C(Cc1cccc(-c3ccccc3)c1)C(NS(C)(=O)=O)C(F)C2 (racemic) [Example 173, rac-N-[(5R,6R)-5-[([1,1′-biphenyl]-3-yl)methyl]-7-fluoro-4-oxo-3-(propan-2-yl)-3,4,5,6,7,8-hexahydroquinazolin-6-yl]methanesulfonamide]
97% | CC(C)n1cnc2c(c1=O)[C@@H](Cc1cccc(-c3ccn(C)n3)c1)[C@@H](NS(C)(=O)=O)CC2 (racemic) [Example 117, rac-N-[(5R,6S)-5-{[3-(1-methyl-1H-pyrazol-3-yl)phenyl]-methyl}-4-oxo-3-(propan-2-yl)-3,4,5,6,7,8-hexahydroquinazolin-6-yl]methanesulfonamide]
92% | CC(C)n1cnc2c(c1=O)[C@@H](Cc1cccc(-c3ccccc3)c1)[C@@H](NS(=O)(=O)CF)CC2 (relative stereo) [Example 145, rel-N-[(5R,6S)-5-[([1,1′-biphenyl]-3-yl)methyl]-4-oxo-3-(propan-2-yl)-3,4,5,6,7,8-hexahydroquinazolin-6-yl]-1-fluoromethanesulfonamide]
99% | CC(C)N1CNC2=C(C1=O)[C@@H](Cc1csc(-c3ccccc3F)n1)[C@@H](NS(=O)(=O)C1(F)CC1)CC2 (relative stereo) [Example 157, rac-1-fluoro-N-[(5R,6S)-5-{[2-(2-fluorophenyl)-1,3-thiazol-4-yl]methyl}-4-oxo-3-(propan-2-yl)-1,2,3,4,5,6,7,8-octahydroquinazolin-6-yl]cyclopropane-1-sulfonamide]
94% | CC(C)n1cnc2c(c1=O)[C@@H](Cc1cccc(-c3cccc(C(F)F)c3F)c1F)[C@@H](NS(C)(=O)=O)CC2 (relative stereo) [Example 152, rel-N-[(5R,6S)-5-{[3′-(difluoromethyl)-2,2′-difluoro[1,1′-biphenyl]-3-yl]methyl}-4-oxo-3-(propan-2-yl)-3,4,5,6,7,8-hexahydroquinazolin-6-yl]methanesulfonamide]
82% | CCc1c(C)n(C)c2c(c1=O)[C@@H](Cc1cccc(-c3ccccc3)c1)[C@@H](NS(C)(=O)=O)CC2 (racemic) [Example 211, rac-N-{(5R,6S)-5-[([1,1′-biphenyl]-3-yl)methyl]-3-ethyl-1,2-dimethyl-4-oxo-1,4,5,6,7,8-hexahydroquinolin-6-yl}methanesulfonamide]
90% | CC(C)n1cnc2c(c1=O)[C@@H](Cc1cccc(-c3cc(F)cc(F)c3)c1F)[C@@H](NS(=O)(=O)CF)CC2 [Example 199, 1-fluoro-N-{(5R,6S)-4-oxo-3-(propan-2-yl)-5-[(2,3′,5′-trifluoro[1,1′-biphenyl]-3-yl)methyl]-3,4,5,6,7,8-hexahydroquinazolin-6-yl}methanesulfonamide]
52% | Cc1ccc2n(c1=O)C(Cc1ccc(-c3ccccc3)cc1)C(NS(C)(=O)=O)CC2 (racemic) [Example 214, rac-N-{(3S,4S)-4-[([1,1′-biphenyl]-4-yl)methyl]-7-methyl-6-oxo-1,3,4,6-tetrahydro-2H-quinolizin-yl}methanesulfonamide]
